One assay has as its target human orexin-1 receptor (Homo sapiens (Human), UniProt O43613). As to the kind of experiment: In vitro assay: intracellular calcium measurements (FLIPR), antagonistic activity. The assay is classed as cell-based. The conditions noted are these: CHO cells, 3 nM orexin-A, compound incubation 120 min; marked values are geometric means of n = 2-6; read-out: IC50 OX1. Background: Calcium assays in cells follow changes in intracellular calcium, usually with a dye or a luminescent sensor.

In a further assay the target is human orexin-2 receptor (Homo sapiens (Human), UniProt O43614). The assay is described as above. The note with it: CHO cells, 3 nM orexin-A, compound incubation 120 min; marked values are geometric means of n = 2-6; read-out: IC50 OX2. Type of assay: cell-based.
human orexin-2 receptor, sequence (O43614 whole entry): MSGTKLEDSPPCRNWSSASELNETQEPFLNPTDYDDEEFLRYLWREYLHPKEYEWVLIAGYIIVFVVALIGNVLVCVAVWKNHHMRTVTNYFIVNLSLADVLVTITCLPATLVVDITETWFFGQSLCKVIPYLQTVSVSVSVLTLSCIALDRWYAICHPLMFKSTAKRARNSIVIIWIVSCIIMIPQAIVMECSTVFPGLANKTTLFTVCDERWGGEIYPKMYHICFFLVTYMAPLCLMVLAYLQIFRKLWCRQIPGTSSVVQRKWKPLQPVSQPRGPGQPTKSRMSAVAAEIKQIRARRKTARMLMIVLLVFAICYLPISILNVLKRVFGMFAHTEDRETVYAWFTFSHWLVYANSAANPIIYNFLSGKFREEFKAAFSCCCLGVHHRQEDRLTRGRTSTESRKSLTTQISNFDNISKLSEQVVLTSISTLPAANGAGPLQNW

SMILES strings stand for the structures. pIC50: −log10 of the molar value.

human orexin-1 receptor, sequence (O43613 whole entry): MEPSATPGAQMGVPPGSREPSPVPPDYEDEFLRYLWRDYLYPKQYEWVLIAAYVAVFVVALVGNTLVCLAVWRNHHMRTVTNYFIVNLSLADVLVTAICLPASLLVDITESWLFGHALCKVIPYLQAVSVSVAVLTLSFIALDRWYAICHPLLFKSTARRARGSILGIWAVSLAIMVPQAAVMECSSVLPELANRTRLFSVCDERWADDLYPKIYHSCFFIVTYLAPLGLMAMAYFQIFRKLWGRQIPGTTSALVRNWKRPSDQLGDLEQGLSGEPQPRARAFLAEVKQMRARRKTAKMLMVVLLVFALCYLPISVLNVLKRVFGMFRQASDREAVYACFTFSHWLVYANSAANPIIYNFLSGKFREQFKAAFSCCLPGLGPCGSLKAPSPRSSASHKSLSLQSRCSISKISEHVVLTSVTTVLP

For orientation: pIC50 means −log10 of the IC50, conventionally taken in molar units. As to `CC1CC(c2ccccc2-c2ccccc2)N(Cc2ccc(OC(F)(F)F)cc2)C1=O` (stereo not drawn) [Example 291, 5-([1,1′-biphenyl]-2-yl)-3-methyl-1-(4-(trifluoromethoxy)benzyl)pyrrolidin-2-one], the pIC50 is 5.69 at human orexin-1 receptor and 6.34 at human orexin-2 receptor.

Take `COc1cccc(OC)c1C1CCC(=O)N1Cc1ccc(Oc2nc(C)cs2)cc1` (stereo not drawn) [Example 292, 5-(2,6-dimethoxyphenyl)-1-(4-((4-methylthiazol-2-yl)oxy)benzyl)pyrrolidin-2-one]: the pIC50 at human orexin-1 receptor was 6.67; on human orexin-2 receptor, 6.90.

On to `COc1cccc(OC)c1C1CC(F)(F)C(=O)N1Cc1cccc(-c2ccccc2)c1` (stereo not drawn) [Example 336, 1-([1,1′-biphenyl]-3-ylmethyl)-5-(2,6-dimethoxyphenyl)-3,3-difluoropyrrolidin-2-one], for which the results for the pIC50 on human orexin-1 receptor and on human orexin-2 receptor were 7.80 and 7.09, respectively.

Take `CCOc1cccc(OC)c1C1CC(F)(F)C(=O)N1Cc1cccc(-c2ccccc2)c1` (stereo not drawn) [Example 337, 1-([1,1′-biphenyl]-3-ylmethyl)-5-(2-ethoxy-6-methoxyphenyl)-3,3-difluoropyrrolidin-2-one]: the figures for the pIC50 on human orexin-1 receptor and at human orexin-2 receptor were 7.92 and 7.20, respectively.

Take `COc1cccc(OC)c1C1CC(C)C(=O)N1Cc1cnc2ccccc2c1` (stereo not drawn) [Example 347, 5-(2,6-dimethoxyphenyl)-3-methyl-1-(quinolin-3-ylmethyl)pyrrolidin-2-one]: the pIC50 was 5.85 on human orexin-1 receptor and 6.11 at human orexin-2 receptor.

Turning to `COc1cccc(OC)c1C1CC(C)C(=O)N1Cc1ccc2ccccc2n1` (stereo not drawn) [Example 348, 5-(2,6-dimethoxyphenyl)-3-methyl-1-(quinolin-2-ylmethyl)pyrrolidin-2-one], the results for the pIC50 on human orexin-1 receptor and at human orexin-2 receptor were 6.69 and 6.32, respectively.

`COc1ccnc(OC)c1C1CC(C)C(=O)N1Cc1cccc(-c2ncc(C)s2)c1` (stereo not drawn) [Example 349, 5-(2,4-dimethoxypyridin-3-yl)-3-methyl-1-(3-(5-methylthiazol-2-yl)benzyl)pyrrolidin-2-one]: the pIC50 at human orexin-1 receptor was 6.98; at human orexin-2 receptor it was 6.92.

As to `COc1ccnc(OC)c1C1CC(C)C(=O)N1Cc1csc(-c2ccc(C)cc2)n1` (stereo not drawn) [Example 350, 5-(2,4-dimethoxypyridin-3-yl)-3-methyl-1-((2-(p-tolyl)thiazol-4-yl)methyl)pyrrolidin-2-one], the pIC50 at human orexin-1 receptor is 6.18; at human orexin-2 receptor, 7.29.

On to `COc1cccc(OC)c1C1CC(C)C(=O)N1Cc1ccnc(-c2ncc(C)s2)c1` (stereo not drawn) [Example 351, 5-(2,6-dimethoxyphenyl)-3-methyl-1-((2-(5-methylthiazol-2-yl)pyridin-4-yl)methyl)pyrrolidin-2-one], for which the figures for the pIC50 at human orexin-1 receptor and on human orexin-2 receptor were 7.80 and 7.29, respectively.

For the compound `COc1ccnc(OC)c1C1CC(C)C(=O)N1Cc1ccc2oc3ccccc3c2c1` (stereo not drawn) [Example 352, 1-(dibenzo[b,d]furan-2-ylmethyl)-5-(2,4-dimethoxypyridin-3-yl)-3-methylpyrrolidin-2-one], the pIC50 at human orexin-1 receptor is 8.15; on human orexin-2 receptor it was 7.89.

In the case of `COc1cccc(OC)c1C1CC(F)(F)C(=O)N1Cc1ccc2oc3ccccc3c2c1` (stereo not drawn) [Example 353, 1-(dibenzo[b,d]furan-2-ylmethyl)-5-(2,6-dimethoxyphenyl)-3,3-difluoropyrrolidin-2-one], the pIC50 is 8.40 at human orexin-1 receptor and 7.72 at human orexin-2 receptor.

Consider `COc1ccnc(OC)c1C1CC(C)C(=O)N1Cc1cccc(-c2ccccc2)c1` (stereo not drawn) [Example 354, 1-([1,1′-biphenyl]-3-ylmethyl)-5-(2,4-dimethoxypyridin-3-yl)-3-methylpyrrolidin-2-one], for which the pIC50 on human orexin-1 receptor was 7.25; at human orexin-2 receptor, 6.95.

As for `COc1ccnc(OC)c1C1CC(C)C(=O)N1Cc1cccc(-c2nc(Cl)cs2)c1` (stereo not drawn) [Example 355, 1-(3-(4-chlorothiazol-2-yl)benzyl)-5-(2,4-dimethoxypyridin-3-yl)-3-methylpyrrolidin-2-one], the pIC50 on human orexin-1 receptor is 7.47; on human orexin-2 receptor, 6.99.

Regarding `COc1ccnc(OC)c1C1CC(C)C(=O)N1Cc1cccc(-c2csc(C)n2)c1` (stereo not drawn) [Example 356, 5-(2,4-dimethoxypyridin-3-yl)-3-methyl-1-(3-(2-methylthiazol-4-yl)benzyl)pyrrolidin-2-one], the pIC50 on human orexin-1 receptor was 7.52; on human orexin-2 receptor, 6.95.

For the compound `COc1cccc(F)c1C1CC(C)C(=O)N1Cc1cnc2ccccc2c1` (stereo not drawn) [Example 358, 5-(2-fluoro-6-methoxyphenyl)-3-methyl-1-(quinolin-3-ylmethyl)pyrrolidin-2-one], the pIC50 at human orexin-1 receptor was 6.02; on human orexin-2 receptor, 5.90.

Take `COc1cccc(F)c1C1CC(C)C(=O)N1Cc1ccc2ccccc2n1` (stereo not drawn) [Example 359, 5-(2-fluoro-6-methoxyphenyl)-3-methyl-1-(quinolin-2-ylmethyl)pyrrolidin-2-one]: the values for the pIC50 on human orexin-1 receptor and at human orexin-2 receptor were 5.77 and 6.48, respectively.

With `COc1cccc(F)c1C1CC(C)C(=O)N1Cc1ccnc(-c2ncc(C)s2)c1` (stereo not drawn) [Example 360, 5-(2-fluoro-6-methoxyphenyl)-3-methyl-1-((2-(5-methylthiazol-2-yl)pyridin-4-yl)methyl)pyrrolidin-2-one], the results for the pIC50 at human orexin-1 receptor and at human orexin-2 receptor were 6.45 and 7.92, respectively.

For `COc1cccc(F)c1C1CC(C)C(=O)N1Cc1ccnc(-n2cccn2)c1` (stereo not drawn) [Example 361, 1-((2-(1H-pyrazol-1-yl)pyridin-4-yl)methyl)-5-(2-fluoro-6-methoxyphenyl)-3-methylpyrrolidin-2-one], the figures for the pIC50 at human orexin-1 receptor and at human orexin-2 receptor were 6.07 and 7.06, respectively.

As to `COc1cccc(F)c1C1CC(C)C(=O)N1Cc1ccc2oc3ccccc3c2c1` (stereo not drawn) [Example 362, 1-(dibenzo[b,d]furan-2-ylmethyl)-5-(2-fluoro-6-methoxyphenyl)-3-methylpyrrolidin-2-one], the pIC50 at human orexin-1 receptor was 7.07; at human orexin-2 receptor it was 8.22.

Take `COc1cccc(F)c1C1CC(C)C(=O)N1Cc1csc(-c2ccc(C)cc2)n1` (stereo not drawn) [Example 363, 5-(2-fluoro-6-methoxyphenyl)-3-methyl-1-((2-(p-tolyl)thiazol-4-yl)methyl)pyrrolidin-2-one]: the pIC50 at human orexin-1 receptor was 6.37; at human orexin-2 receptor, 7.31.

Take `COc1cccc(F)c1C1CC(C)C(=O)N1Cc1cccc(-c2ncc(C)s2)c1` (stereo not drawn) [Example 364, 5-(2-fluoro-6-methoxyphenyl)-3-methyl-1-(3-(5-methylthiazol-2-yl)benzyl)pyrrolidin-2-one]: the pIC50 was 6.92 at human orexin-1 receptor and 7.96 on human orexin-2 receptor.

Turning to `COc1cccc(F)c1C1CC(C)C(=O)N1Cc1cccc(-c2nc(Cl)cs2)c1` (stereo not drawn) [Example 365, 1-(3-(4-chlorothiazol-2-yl)benzyl)-5-(2-fluoro-6-methoxyphenyl)-3-methylpyrrolidin-2-one], the pIC50 at human orexin-1 receptor was 6.94; at human orexin-2 receptor it was 8.05.

With `COc1cccc(F)c1C1CC(C)C(=O)N1Cc1ccnc(-c2nc(C)cs2)c1` (stereo not drawn) [Example 366, 5-(2-fluoro-6-methoxyphenyl)-3-methyl-1-((2-(4-methylthiazol-2-yl)pyridin-4-yl)methyl)pyrrolidin-2-one], the pIC50 at human orexin-1 receptor is 6.80; at human orexin-2 receptor it was 8.10.

In the case of `CCOc1cccc(F)c1C1CC(C)C(=O)N1Cc1cccc(OC(F)(F)F)c1` (stereo not drawn) [Example 371, 5-(2-ethoxy-6-fluorophenyl)-3-methyl-1-(3-(trifluoromethoxy)benzyl)pyrrolidin-2-one], the pIC50 at human orexin-1 receptor is 6.41; at human orexin-2 receptor, 7.72.

`CCOc1cccc(F)c1C1CC(C)C(=O)N1Cc1ccc(OC(F)(F)F)c(F)c1` (stereo not drawn) [Example 372, 5-(2-ethoxy-6-fluorophenyl)-1-(3-fluoro-4-(trifluoromethoxy)benzyl)-3-methylpyrrolidin-2-one]: the values for the pIC50 at human orexin-1 receptor and on human orexin-2 receptor were 5.83 and 6.94, respectively.

On to `CCOc1cccc(F)c1C1CC(C)C(=O)N1Cc1cccc(OC(F)F)c1` (stereo not drawn) [Example 374, 1-(3-(difluoromethoxy)benzyl)-5-(2-ethoxy-6-fluorophenyl)-3-methylpyrrolidin-2-one], for which the pIC50 is 6.01 at human orexin-1 receptor and 7.39 at human orexin-2 receptor.

With `CCOc1cccc(F)c1C1CC(C)C(=O)N1Cc1ccc(OC(F)F)c(Cl)c1` (stereo not drawn) [Example 375, 1-(3-chloro-4-(difluoromethoxy)benzyl)-5-(2-ethoxy-6-fluorophenyl)-3-methylpyrrolidin-2-one], the pIC50 was 6.15 at human orexin-1 receptor and 7.19 on human orexin-2 receptor.

`CCOc1cccc(F)c1C1CC(C)C(=O)N1Cc1cnc2ccccc2c1` (stereo not drawn) [Example 378, 5-(2-ethoxy-6-fluorophenyl)-3-methyl-1-(quinolin-3-ylmethyl)pyrrolidin-2-one]: the pIC50 on human orexin-1 receptor is 5.79; at human orexin-2 receptor it was 6.16.

Take `CCOc1cccc(F)c1C1CC(C)C(=O)N1Cc1ccc2ccccc2n1` (stereo not drawn) [Example 379, 5-(2-ethoxy-6-fluorophenyl)-3-methyl-1-(quinolin-2-ylmethyl)pyrrolidin-2-one]: the pIC50 was 6.00 at human orexin-1 receptor and 7.15 at human orexin-2 receptor.

Turning to `CCOc1cccc(F)c1C1CC(C)C(=O)N1Cc1ccnc(-c2ncc(C)s2)c1` (stereo not drawn) [Example 380, 5-(2-ethoxy-6-fluorophenyl)-3-methyl-1-((2-(5-methylthiazol-2-yl)pyridin-4-yl)methyl)pyrrolidin-2-one], the figures for the pIC50 on human orexin-1 receptor and on human orexin-2 receptor were 6.88 and 8.70, respectively.

`CCOc1cccc(F)c1C1CC(C)C(=O)N1Cc1ccnc(-n2cccn2)c1` (stereo not drawn) [Example 381, 1-((2-(1H-pyrazol-1-yl)pyridin-4-yl)methyl)-5-(2-ethoxy-6-fluorophenyl)-3-methylpyrrolidin-2-one]: the pIC50 at human orexin-1 receptor is 6.38; at human orexin-2 receptor, 8.05.

Take `CCOc1cccc(F)c1C1CC(C)C(=O)N1Cc1ccc2oc3ccccc3c2c1` (stereo not drawn) [Example 382, 1-(dibenzo[b,d]furan-2-ylmethyl)-5-(2-ethoxy-6-fluorophenyl)-3-methylpyrrolidin-2-one]: the pIC50 on human orexin-1 receptor is 7.06; at human orexin-2 receptor it was 8.70.

For the compound `CCOc1cccc(F)c1C1CC(C)C(=O)N1Cc1csc(-c2ccc(C)cc2)n1` (stereo not drawn) [Example 383, 5-(2-ethoxy-6-fluorophenyl)-3-methyl-1-((2-(p-tolyl)thiazol-4-yl)methyl)pyrrolidin-2-one], the pIC50 was 6.63 on human orexin-1 receptor and 8.05 at human orexin-2 receptor.

For the origin of these results see patent US9242970B2 (ACTELION PHARMACEUTICALS LTD., priority 2010, dated 2016).
